Data as given in patent US20100267561A1, “HERBICIDAL PYRIDAZINONE DERIVATIVES” (priority 2007, published 2010).
Like-named read-outs stand apart in the source and are kept apart here.

Legend:
Test in all cases: Test B pre-/postemergence plant response
Type in all cases: in vivo
[1] = test system: Italian ryegrass (Lolium multiflorum); conditions: for pest or weed control at 31 g/ha / pest or weed control at 62 g/ha: Lolium multiflorum, read-out: Plant response rating, Ryegrass, Italian; for pest or weed control at 31 g/ha: 31 g ai/ha; for pest or weed control at 62 g/ha: 62 g ai/ha, 100 complete control
From the text: (§1) Seeds of plant species selected from blackgrass (Alopecurus myosuroides), downy bromegrass (Bromus tectorum), green foxtail (Setaria viridis), Italian ryegrass (Lolium multiflorum), wheat (Triticum aestivum), wild oat (Avena fatua), catchweed bedstraw (Galium aparine), bermudagrass (Cynodon dactylon), surinam grass (Brachiaria decumbens), cocklebur (Xanthium strumarium), corn (Zea mays), large crabgrass (Digitaria sanguinalis), woolly cupgrass (Eriochloa villosa), giant foxtail (Setaria faberii), goosegrass (Eleusine indica), johnsongrass (Sorghum halepense), kochia (Kochia scoparia), lambsquarters (Chenopodium album), morningglory (Ipomoea coccinea), eastern black (E.B.) nightshade (Solanum ptycanthum), yellow nutsedge (Cyperus esculentus), pigweed (Amaranthus retroflexus), common ragweed (Ambrosia elation), Russian thistle (Salsola iberica), soybean (Glycine max), common (oilseed) sunflower (Helianthus annuus), and velvetleaf (Abutilon theophrasti) were planted and treated preemergence with test chemicals formulated in a non-phytotoxic solvent mixture which included a surfactant.
(§2) At the same time, plants selected from these crop and weed species and also winter barley (Hordeum vulgare), canarygrass (Phalaris minor), chickweed (Stellaria media) and windgrass (Apera spica-venti) were treated with postemergence applications of some of the test chemicals formulated in the same manner. Plants ranged in height from 2 to 18 cm (1- to 4-leaf stage) for postemergence treatments.
(§3) Plant species in the flooded paddy test consisted of rice (Oryza sativa), umbrella sedge (Cyperus difformis), ducksalad (Heteranthera limosa) and barnyardgrass (Echinochloa crus-galli) grown to the 2-leaf stage for testing. At time of treatment, test pots were flooded to 3 cm above the soil surface, treated by application of test compounds directly to the paddy water, and then maintained at that water depth for the duration of the test. Treated plants and controls were maintained in a greenhouse for 13 to 15 days, after which time all species were compared to controls and visually evaluated. Plant response ratings, summarized in Table B, are based on a scale of 0 to 100 where 0 is no effect and 100 is complete control. A dash (-) response means no test result.

[2] = test system: Russian thistle (Salsola iberica); conditions: Preemergence
From the text: as §1, §2, §3

[3] = test system: bermudagrass (Cynodon dactylon); conditions: for pest or weed control at 31 g/ha: 31 g ai/ha; for pest or weed control at 62 g/ha: 62 g ai/ha, 100 complete control
From the text: as §1, §2, §3

[4] = test system: cocklebur (Xanthium strumarium); conditions: for pest or weed control at 31 g/ha: 31 g ai/ha; for pest or weed control at 62 g/ha: 62 g ai/ha, 100 complete control
From the text: as §1, §2, §3

corn (Zea mays) = conditions: for Corn plant response rating (crop injury, 0 = no effect, 100 = complete kill) at 31 g/ha: 31 g ai/ha; for Corn plant response rating (crop injury, 0 = no effect, 100 = complete kill) at 62 g/ha: 62 g ai/ha, 100 complete control
From the text: as §1, §2, §3

[5] = test system: downy bromegrass (Bromus tectorum); conditions: for pest or weed control at 31 g/ha: 31 g ai/ha; for pest or weed control at 62 g/ha: 62 g ai/ha, 100 complete control
From the text: as §1, §2, §3

[6] = test system: giant foxtail (Setaria faberii); conditions: for pest or weed control at 31 g/ha: 31 g ai/ha; for pest or weed control at 62 g/ha: 62 g ai/ha, 100 complete control
From the text: as §1, §2, §3

[7] = test system: velvetleaf (Abutilon theophrasti); conditions: for pest or weed control at 31 g/ha / pest or weed control at 62 g/ha: Abutilon theophrasti, read-out: Plant response rating, Velvetleaf; for pest or weed control at 31 g/ha: 31 g ai/ha; for pest or weed control at 62 g/ha: 62 g ai/ha, 100 complete control
From the text: as §1, §2, §3

[8] = test system: woolly cupgrass (Eriochloa villosa); conditions: for pest or weed control at 31 g/ha: 31 g ai/ha; for pest or weed control at 62 g/ha: 62 g ai/ha, 100 complete control
From the text: as §1, §2, §3

[9] = test system: yellow nutsedge (Cyperus esculentus); conditions: for pest or weed control at 31 g/ha / pest or weed control at 62 g/ha: Cyperus, read-out: Plant response rating, Nutsedge, Yellow; for pest or weed control at 31 g/ha: 31 g ai/ha; for pest or weed control at 62 g/ha: 62 g ai/ha, 100 complete control
From the text: as §1, §2, §3

[10] = 8 g ai/ha, postemergence, 0-100 scale
[11] = 16 g ai/ha, postemergence, 0-100 scale
[12] = post-emergence, Postemergence, scale 0 to 100
[13] = post-emergence, Postemergence, scale 0 to 100, 0 no effect
[14] = pre-emergence, Preemergence, scale 0 to 100 (0 no effect, 100 complete control)
[15] = pre-emergence, Preemergence, 0 to 100 scale, 0 no effect
[16] = Preemergence, 8 g ai/ha, scale 0 to 100 (0 no effect, 100 complete control)
[17] = Preemergence, 16 g ai/ha, scale 0 to 100

Cc1nn(C)c(=O)c(-c2nc(-c3ccc(Cl)cc3)sc2C)c1O [Compound 79, 4-[2-(4-chlorophenyl)-5-methyl-4-thiazolyl]-5-hydroxy-2,6-dimethyl-3(2H)-pyridazinone]
Ryegrass, Italian plant response rating [1, 10]: 55
Ryegrass, Italian plant response rating [1, 11]: 70
pest or weed control at 31 g/ha [1, 12]: 80%
pest or weed control at 62 g/ha [1, 13]: 90%
pest or weed control at 31 g/ha [1, 14]: 100%
pest or weed control at 62 g/ha [1, 15]: 100%
Ryegrass, Italian plant response rating [1, 16]: 0
Ryegrass, Italian plant response rating [1, 17]: 90
Russian Thistle plant response rating ([2]; 8 g ai/ha, scale 0 to 100 (0 no effect, 100 complete control)): 0
Plant response rating, Russian Thistle ([2]; 31 g ai/ha, scale 0 to 100 (0 no effect, 100 complete control)): 0
Plant response rating, Russian Thistle ([2]; 62 g ai/ha, 0 to 100 scale, 0 no effect, 100 complete control): 0
Russian Thistle plant response rating ([2]; 16 g ai/ha, scale 0 to 100): 0
Bermudagrass plant response rating [3, 10]: 70
pest or weed control at 16 g/ha ([3]; Cynodon dactylon, post-emergence, Postemergence, 16 g ai/ha, scale 0 to 100, read-out: Plant response rating, Bermudagrass): 80%
pest or weed control at 31 g/ha ([3]; Cynodon dactylon, post-emergence, Postemergence, scale 0 to 100, read-out: Plant response rating, Bermudagrass): 100%
pest or weed control at 62 g/ha ([3]; Cynodon dactylon, post-emergence, Postemergence, scale 0 to 100, 0 no effect, read-out: Plant response rating, Bermudagrass): 100%
pest or weed control at 31 g/ha ([3]; Cynodon dactylon, pre-emergence, Preemergence, scale 0 to 100 (0 no effect, 100 complete control), read-out: Plant response rating, Bermudagrass): 100%
pest or weed control at 62 g/ha ([3]; Cynodon dactylon, pre-emergence, Preemergence, 0 to 100 scale, 0 no effect, read-out: Plant response rating, Bermudagrass): 100%
Bermudagrass plant response rating [3, 16]: 90
Bermudagrass plant response rating ([3]; Preemergence, 16 g ai/ha, scale 0 to 100 (0 no effect, 100 complete control)): 100
Cocklebur plant response rating [4, 10]: 0
Cocklebur plant response rating [4, 16]: 0
Cocklebur plant response rating [4, 17]: 0
pest or weed control at 16 g/ha ([4]; Xanthium strumarium, post-emergence, Postemergence, 16 g ai/ha, scale 0 to 100, read-out: Plant response rating, Cocklebur): 0%
pest or weed control at 31 g/ha ([4]; Xanthium strumarium, post-emergence, Postemergence, scale 0 to 100, read-out: Plant response rating, Cocklebur): 0%
pest or weed control at 62 g/ha ([4]; Xanthium strumarium, post-emergence, Postemergence, scale 0 to 100, 0 no effect, read-out: Plant response rating, Cocklebur): 0%
pest or weed control at 31 g/ha ([4]; Xanthium strumarium, pre-emergence, Preemergence, scale 0 to 100 (0 no effect, 100 complete control), read-out: Plant response rating, Cocklebur): 0%
pest or weed control at 62 g/ha ([4]; Xanthium strumarium, pre-emergence, Preemergence, 0 to 100 scale, 0 no effect, read-out: Plant response rating, Cocklebur): 0%
Corn plant response rating (corn (Zea mays); [10]): 0
Corn plant response rating (corn (Zea mays); [16]): 0
Corn plant response rating (corn (Zea mays); [17]): 0
Corn plant response rating (crop injury, 0 = no effect, 100 = complete kill) at 16 g/ha (corn (Zea mays); Zea mays, post-emergence, Postemergence, 16 g ai/ha, scale 0 to 100): 0%
Corn plant response rating (crop injury, 0 = no effect, 100 = complete kill) at 31 g/ha (corn (Zea mays); Zea mays, post-emergence, Postemergence, scale 0 to 100): 20%
Corn plant response rating (crop injury, 0 = no effect, 100 = complete kill) at 62 g/ha (corn (Zea mays); Zea mays, post-emergence, Postemergence, scale 0 to 100, 0 no effect): 35%
Corn plant response rating (crop injury, 0 = no effect, 100 = complete kill) at 31 g/ha (corn (Zea mays); Zea mays, pre-emergence, Preemergence, scale 0 to 100 (0 no effect, 100 complete control)): 50%
Corn plant response rating (crop injury, 0 = no effect, 100 = complete kill) at 62 g/ha (corn (Zea mays); Zea mays, pre-emergence, Preemergence, 0 to 100 scale, 0 no effect): 100%
Bromegrass, Downy plant response rating [5, 10]: 0
pest or weed control at 16 g/ha ([5]; Bromus tectorum, post-emergence, Postemergence, 16 g ai/ha, scale 0 to 100, read-out: Plant response rating, Bromegrass, Downy): 0%
pest or weed control at 31 g/ha ([5]; Bromus tectorum, post-emergence, Postemergence, scale 0 to 100, read-out: Plant response rating, Bromegrass, Downy): 30%
pest or weed control at 62 g/ha ([5]; Bromus tectorum, post-emergence, Postemergence, scale 0 to 100, 0 no effect, read-out: Plant response rating, Bromegrass, Downy): 50%
pest or weed control at 31 g/ha ([5]; Bromus tectorum, pre-emergence, Preemergence, scale 0 to 100 (0 no effect, 100 complete control), read-out: Plant response rating, Bromegrass, Downy): 55%
pest or weed control at 62 g/ha ([5]; Bromus tectorum, pre-emergence, Preemergence, 0 to 100 scale, 0 no effect, read-out: Plant response rating, Bromegrass, Downy): 80%
Bromegrass, Downy plant response rating [5, 16]: 0
Bromegrass, Downy plant response rating [5, 17]: 0
Foxtail, Giant plant response rating [6, 10]: 75
Foxtail, Giant plant response rating [6, 16]: 55
Foxtail, Giant plant response rating [6, 17]: 100
pest or weed control at 16 g/ha ([6]; Setaria faberi, post-emergence, Postemergence, 16 g ai/ha, scale 0 to 100, read-out: Plant response rating, Foxtail, Giant): 80%
pest or weed control at 31 g/ha ([6]; Setaria faberi, post-emergence, Postemergence, scale 0 to 100, read-out: Plant response rating, Foxtail, Giant): 85%
pest or weed control at 62 g/ha ([6]; Setaria faberi, post-emergence, Postemergence, scale 0 to 100, 0 no effect, read-out: Plant response rating, Foxtail, Giant): 90%
pest or weed control at 31 g/ha ([6]; Setaria faberi, pre-emergence, Preemergence, scale 0 to 100 (0 no effect, 100 complete control), read-out: Plant response rating, Foxtail, Giant): 100%
pest or weed control at 62 g/ha ([6]; Setaria faberi, pre-emergence, Preemergence, 0 to 100 scale, 0 no effect, read-out: Plant response rating, Foxtail, Giant): 100%
Velvetleaf plant response rating [7, 10]: 0
Velvetleaf plant response rating [7, 11]: 0
pest or weed control at 31 g/ha [7, 12]: 0%
pest or weed control at 62 g/ha [7, 13]: 0%
pest or weed control at 31 g/ha [7, 14]: 0%
pest or weed control at 62 g/ha [7, 15]: 0%
Velvetleaf plant response rating [7, 16]: 0
Velvetleaf plant response rating [7, 17]: 0
Cupgrass, Woolly plant response rating [8, 10]: 60
pest or weed control at 16 g/ha ([8]; Eriochloa villosa, post-emergence, Postemergence, 16 g ai/ha, scale 0 to 100, read-out: Plant response rating, Cupgrass, Woolly): 65%
pest or weed control at 31 g/ha ([8]; Eriochloa villosa, post-emergence, Postemergence, scale 0 to 100, read-out: Plant response rating, Cupgrass, Woolly): 75%
pest or weed control at 62 g/ha ([8]; Eriochloa villosa, post-emergence, Postemergence, scale 0 to 100, 0 no effect, read-out: Plant response rating, Cupgrass, Woolly): 80%
pest or weed control at 31 g/ha ([8]; Eriochloa villosa, pre-emergence, Preemergence, scale 0 to 100 (0 no effect, 100 complete control), read-out: Plant response rating, Cupgrass, Woolly): 100%
pest or weed control at 62 g/ha ([8]; Eriochloa villosa, pre-emergence, Preemergence, 0 to 100 scale, 0 no effect, read-out: Plant response rating, Cupgrass, Woolly): 100%
Cupgrass, Woolly plant response rating [8, 16]: 20
Cupgrass, Woolly plant response rating [8, 17]: 65
Nutsedge, Yellow plant response rating [9, 10]: 0
Nutsedge, Yellow plant response rating [9, 11]: 0
pest or weed control at 31 g/ha [9, 12]: 0%
pest or weed control at 62 g/ha [9, 13]: 0%
pest or weed control at 31 g/ha [9, 14]: 0%
pest or weed control at 62 g/ha [9, 15]: 0%
Nutsedge, Yellow plant response rating [9, 16]: 0
Nutsedge, Yellow plant response rating [9, 17]: 0
